Molecules are shown by their SMILES.

The target of experiment [1] is T1, Alpha-2C adrenergic receptor (Homo sapiens) (UniProt P18825).
T1 sequence (whole entry): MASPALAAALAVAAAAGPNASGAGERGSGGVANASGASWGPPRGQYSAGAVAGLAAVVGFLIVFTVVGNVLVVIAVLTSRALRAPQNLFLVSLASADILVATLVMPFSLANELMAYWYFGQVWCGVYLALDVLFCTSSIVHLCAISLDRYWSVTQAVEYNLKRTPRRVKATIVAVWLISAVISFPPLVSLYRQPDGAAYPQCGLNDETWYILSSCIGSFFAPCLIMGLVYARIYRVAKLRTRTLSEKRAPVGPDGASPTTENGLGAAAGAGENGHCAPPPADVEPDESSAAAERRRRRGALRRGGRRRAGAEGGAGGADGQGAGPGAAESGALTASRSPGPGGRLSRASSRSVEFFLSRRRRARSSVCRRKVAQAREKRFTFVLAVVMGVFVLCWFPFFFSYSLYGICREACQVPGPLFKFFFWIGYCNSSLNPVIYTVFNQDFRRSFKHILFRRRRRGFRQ
The experiment in a line: Adrenergic alpha2C Eurofins-Panlabs radioligand binding assay. Set-up: ligand concentration 1 nM, non-specific ligand with concentration 10 µM WB-4101, incubation time 60 min, incubation temperature 25 °C. Particulars: Compound concentration 10.0 uM.

The subject of experiment [2] is Tyrosine-protein kinase ABL1 (Homo sapiens), P00519 [T315I]. The experiment in a line: ABL1 T315I Kinase screen. Particulars: Compound concentration 1.0 uM.
Experiment [3] deals with AMP-activated protein kinase (AMPK) alpha-1/beta-1/gamma-1 (Homo sapiens) (UniProt P54619+Q9Y478+Q13131). The experiment in a line: AMPK A1/B1/G1 Kinase screen. Format: protein-complex assay. Particulars: Compound concentration 1.0 uM.
Experiment [4] concerns the target CDK8/Cyclin C (Homo sapiens) (UniProt P49336+P24863). The experiment in a line: CDK8/cyclin C Kinase screen. Format: protein-complex assay. The settings on record: Compound concentration 1.0 uM.
In experiment [5] the target is Serine/threonine-protein kinase Chk2 (Homo sapiens) (UniProt O96017). The experiment in a line: CHEK2 (CHK2) Kinase screen. The settings on record: Compound concentration 1.0 uM.
Experiment [6] deals with Tyrosine-protein kinase CSK (Homo sapiens) (UniProt P41240). Nature of the experiment: CSK Kinase screen. The settings on record: Compound concentration 1.0 uM.
The target in experiment [7] is Dual specificity tyrosine-phosphorylation-regulated kinase 3 (Homo sapiens) (UniProt O43781). Nature of the experiment: DYRK3 Kinase screen. The settings on record: Compound concentration 1.0 uM.
Experiment [8] concerns Epidermal growth factor receptor (Homo sapiens), P00533 [L861Q]. Nature of the experiment: EGFR (ErbB1) L861Q Kinase screen. Particulars: Compound concentration 1.0 uM.
Experiment [9] has as its target Tyrosine-protein kinase HCK (Homo sapiens) (UniProt P08631). Nature of the experiment: HCK Kinase screen. Particulars: Compound concentration 1.0 uM.
Experiment [10] has as its target Tyrosine-protein kinase JAK2 (Homo sapiens) (UniProt O60674). Nature of the experiment: JAK2 JH1 JH2 Kinase screen. Particulars: Compound concentration 1.0 uM.
Experiment [11] deals with Dual specificity mitogen-activated protein kinase kinase 2 (Homo sapiens) (UniProt P36507). Nature of the experiment: MAP2K2 (MEK2) Kinase screen. Particulars: Compound concentration 1.0 uM.
Experiment [12] deals with Mitogen-activated protein kinase kinase kinase 9 (Homo sapiens) (UniProt P80192). Nature of the experiment: MAP3K9 (MLK1) Kinase screen. The settings on record: Compound concentration 1.0 uM.
The target of experiment [13] is T2, Mitogen-activated protein kinase 13 (Homo sapiens) (UniProt O15264).
T2 sequence (whole entry): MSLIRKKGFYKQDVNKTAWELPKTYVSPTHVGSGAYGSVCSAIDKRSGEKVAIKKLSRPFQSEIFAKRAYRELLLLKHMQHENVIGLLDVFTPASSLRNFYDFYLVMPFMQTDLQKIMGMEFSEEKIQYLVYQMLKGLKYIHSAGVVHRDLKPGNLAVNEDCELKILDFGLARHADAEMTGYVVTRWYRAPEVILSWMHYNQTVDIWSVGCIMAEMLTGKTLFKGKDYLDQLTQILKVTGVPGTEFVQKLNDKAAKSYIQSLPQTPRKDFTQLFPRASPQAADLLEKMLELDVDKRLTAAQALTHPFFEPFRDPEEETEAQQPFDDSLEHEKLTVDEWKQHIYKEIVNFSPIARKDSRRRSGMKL
Nature of the experiment: MAPK13 (p38 delta) Kinase screen. Particulars: Compound concentration 1.0 uM.

Experiment [14] addresses T3, MAP kinase-activated protein kinase 5 (Homo sapiens) (UniProt Q8IW41).
T3 sequence (whole entry): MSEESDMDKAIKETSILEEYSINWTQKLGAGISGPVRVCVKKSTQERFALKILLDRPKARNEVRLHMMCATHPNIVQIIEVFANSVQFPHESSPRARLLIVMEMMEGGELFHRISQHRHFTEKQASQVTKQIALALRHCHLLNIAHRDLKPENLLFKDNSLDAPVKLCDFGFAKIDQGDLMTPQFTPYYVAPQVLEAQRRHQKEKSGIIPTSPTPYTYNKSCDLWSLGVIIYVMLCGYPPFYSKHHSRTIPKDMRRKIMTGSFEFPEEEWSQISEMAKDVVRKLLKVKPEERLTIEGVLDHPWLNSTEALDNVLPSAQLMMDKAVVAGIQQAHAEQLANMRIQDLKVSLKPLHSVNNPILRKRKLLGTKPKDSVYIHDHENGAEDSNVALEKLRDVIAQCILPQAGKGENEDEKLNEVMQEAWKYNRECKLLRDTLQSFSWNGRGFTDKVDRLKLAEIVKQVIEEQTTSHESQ
Nature of the experiment: MAPKAPK5 (PRAK) Kinase screen. The settings on record: Compound concentration 1.0 uM.

Experiment [15] has as its target High affinity nerve growth factor receptor (Homo sapiens) (UniProt P04629). Nature of the experiment: NTRK1 (TRKA) Kinase screen. The settings on record: Compound concentration 1.0 uM.
Experiment [16] has as its target Platelet-derived growth factor receptor alpha (Homo sapiens) (UniProt P16234). Nature of the experiment: PDGFRA (PDGFR alpha) Kinase screen. Particulars: Compound concentration 1.0 uM.
Experiment [17] concerns Platelet-derived growth factor receptor alpha (Homo sapiens), P16234 [T674I]. The experiment in a line: PDGFRA T674I Kinase screen. Particulars: Compound concentration 1.0 uM.
Experiment [18] deals with T4, Serine/threonine-protein kinase 3 (Homo sapiens) (UniProt Q13188).
T4 sequence (whole entry): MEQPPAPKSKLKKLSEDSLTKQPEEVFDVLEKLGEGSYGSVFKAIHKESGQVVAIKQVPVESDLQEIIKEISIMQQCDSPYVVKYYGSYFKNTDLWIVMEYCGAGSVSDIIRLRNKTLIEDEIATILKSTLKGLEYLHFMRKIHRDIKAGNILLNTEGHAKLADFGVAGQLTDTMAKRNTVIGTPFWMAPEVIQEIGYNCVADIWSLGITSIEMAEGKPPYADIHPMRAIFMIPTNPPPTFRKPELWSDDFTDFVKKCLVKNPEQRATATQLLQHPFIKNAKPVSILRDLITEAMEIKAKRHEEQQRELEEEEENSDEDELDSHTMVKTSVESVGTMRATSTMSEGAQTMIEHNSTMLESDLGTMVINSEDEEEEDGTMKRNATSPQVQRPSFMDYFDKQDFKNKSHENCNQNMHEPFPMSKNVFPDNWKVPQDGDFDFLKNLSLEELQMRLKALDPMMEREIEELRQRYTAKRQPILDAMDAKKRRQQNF
Nature of the experiment: STK3 (MST2) Kinase screen. Particulars: Compound concentration 1.0 uM.

The target of experiment [19] is C-X-C chemokine receptor type 4 (Homo sapiens) (UniProt P61073). The experiment in a line: Chemokine CXCR4 Eurofins-Panlabs radioligand binding assay. Also on record: ligand concentration 0.03 nM. Particulars: Compound concentration 10.0 uM.
Experiment [20] concerns the target Prostaglandin E2 receptor EP1 subtype (Homo sapiens) (UniProt P34995). The experiment in a line: Prostanoid EP1 Eurofins-Panlabs radioligand binding assay. Set-up: ligand concentration 1 nM. The settings on record: Compound concentration 10.0 uM.
In experiment [21] the target is Prostacyclin receptor (Homo sapiens) (UniProt P43119). The experiment in a line: Prostanoid IP Eurofins-Panlabs radioligand binding assay. The settings on record: Compound concentration 10.0 uM.
Experiment [22] relates to Leucine-rich repeat serine/threonine-protein kinase 2 (Homo sapiens), Q5S007 [G2019S]. The settings on record: Compound concentration 1000.0 nM.

Chain of Tyrosine-protein kinase CSK (Homo sapiens) (P41240 2-450 limits assumed): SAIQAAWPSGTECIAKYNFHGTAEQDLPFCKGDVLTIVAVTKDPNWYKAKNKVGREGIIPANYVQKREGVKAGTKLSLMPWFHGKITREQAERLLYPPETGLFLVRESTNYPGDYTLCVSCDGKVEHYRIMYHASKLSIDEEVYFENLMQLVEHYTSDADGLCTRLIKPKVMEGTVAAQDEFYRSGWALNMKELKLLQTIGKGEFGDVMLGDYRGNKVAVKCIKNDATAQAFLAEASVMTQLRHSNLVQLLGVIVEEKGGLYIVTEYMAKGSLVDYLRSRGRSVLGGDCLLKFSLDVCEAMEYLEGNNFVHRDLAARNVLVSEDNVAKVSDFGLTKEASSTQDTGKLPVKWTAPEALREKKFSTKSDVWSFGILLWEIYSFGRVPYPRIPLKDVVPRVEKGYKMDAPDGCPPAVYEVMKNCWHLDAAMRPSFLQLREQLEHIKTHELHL
Chain of Serine/threonine-protein kinase Chk2 (Homo sapiens) (O96017 whole entry): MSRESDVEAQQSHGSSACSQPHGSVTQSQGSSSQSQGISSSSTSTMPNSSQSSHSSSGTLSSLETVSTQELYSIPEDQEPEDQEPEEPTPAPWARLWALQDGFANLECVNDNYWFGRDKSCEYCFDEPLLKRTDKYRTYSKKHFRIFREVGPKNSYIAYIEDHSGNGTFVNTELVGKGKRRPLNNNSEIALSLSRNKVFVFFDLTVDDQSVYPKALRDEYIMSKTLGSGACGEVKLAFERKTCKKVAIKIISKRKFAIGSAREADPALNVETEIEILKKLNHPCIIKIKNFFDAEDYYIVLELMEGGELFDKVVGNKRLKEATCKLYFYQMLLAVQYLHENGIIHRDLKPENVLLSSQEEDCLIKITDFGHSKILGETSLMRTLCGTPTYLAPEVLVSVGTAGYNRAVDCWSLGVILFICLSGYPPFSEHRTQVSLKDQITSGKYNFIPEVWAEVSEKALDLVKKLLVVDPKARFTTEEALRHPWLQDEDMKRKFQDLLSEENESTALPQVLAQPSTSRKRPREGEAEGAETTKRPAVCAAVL
Chain of Tyrosine-protein kinase HCK (Homo sapiens) (P08631 2-526 limits assumed): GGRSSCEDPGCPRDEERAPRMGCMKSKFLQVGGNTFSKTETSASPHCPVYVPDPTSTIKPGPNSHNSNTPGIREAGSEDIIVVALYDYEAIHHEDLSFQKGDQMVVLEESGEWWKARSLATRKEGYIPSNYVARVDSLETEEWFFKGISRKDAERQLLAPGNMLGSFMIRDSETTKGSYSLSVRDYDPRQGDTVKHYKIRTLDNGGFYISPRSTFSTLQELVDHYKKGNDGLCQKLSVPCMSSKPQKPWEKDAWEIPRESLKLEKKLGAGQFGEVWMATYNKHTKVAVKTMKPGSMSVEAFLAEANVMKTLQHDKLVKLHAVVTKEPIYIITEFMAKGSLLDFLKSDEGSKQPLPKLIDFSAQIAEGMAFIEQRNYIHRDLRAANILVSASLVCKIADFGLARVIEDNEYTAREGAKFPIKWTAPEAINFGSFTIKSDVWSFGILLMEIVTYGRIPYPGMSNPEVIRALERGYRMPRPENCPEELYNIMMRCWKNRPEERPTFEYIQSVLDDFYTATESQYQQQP
Chain of Dual specificity tyrosine-phosphorylation-regulated kinase 3 (Homo sapiens) (O43781 whole entry): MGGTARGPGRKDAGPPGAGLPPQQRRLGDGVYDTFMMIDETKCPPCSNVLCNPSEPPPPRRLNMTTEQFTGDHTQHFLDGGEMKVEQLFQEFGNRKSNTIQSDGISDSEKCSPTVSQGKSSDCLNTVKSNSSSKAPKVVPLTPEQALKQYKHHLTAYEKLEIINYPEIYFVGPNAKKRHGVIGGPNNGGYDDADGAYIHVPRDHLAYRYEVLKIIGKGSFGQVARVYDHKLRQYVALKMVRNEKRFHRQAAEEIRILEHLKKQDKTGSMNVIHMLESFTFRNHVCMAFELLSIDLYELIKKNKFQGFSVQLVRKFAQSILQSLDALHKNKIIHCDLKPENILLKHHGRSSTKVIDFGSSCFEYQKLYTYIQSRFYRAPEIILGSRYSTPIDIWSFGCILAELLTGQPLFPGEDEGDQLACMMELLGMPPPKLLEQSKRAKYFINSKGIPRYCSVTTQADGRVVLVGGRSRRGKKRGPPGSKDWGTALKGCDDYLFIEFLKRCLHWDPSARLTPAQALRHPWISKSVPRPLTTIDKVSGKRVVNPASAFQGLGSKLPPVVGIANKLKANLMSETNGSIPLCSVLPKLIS
Chain of Platelet-derived growth factor receptor alpha (Homo sapiens), P16234 [T674I] (P16234 whole entry T674I): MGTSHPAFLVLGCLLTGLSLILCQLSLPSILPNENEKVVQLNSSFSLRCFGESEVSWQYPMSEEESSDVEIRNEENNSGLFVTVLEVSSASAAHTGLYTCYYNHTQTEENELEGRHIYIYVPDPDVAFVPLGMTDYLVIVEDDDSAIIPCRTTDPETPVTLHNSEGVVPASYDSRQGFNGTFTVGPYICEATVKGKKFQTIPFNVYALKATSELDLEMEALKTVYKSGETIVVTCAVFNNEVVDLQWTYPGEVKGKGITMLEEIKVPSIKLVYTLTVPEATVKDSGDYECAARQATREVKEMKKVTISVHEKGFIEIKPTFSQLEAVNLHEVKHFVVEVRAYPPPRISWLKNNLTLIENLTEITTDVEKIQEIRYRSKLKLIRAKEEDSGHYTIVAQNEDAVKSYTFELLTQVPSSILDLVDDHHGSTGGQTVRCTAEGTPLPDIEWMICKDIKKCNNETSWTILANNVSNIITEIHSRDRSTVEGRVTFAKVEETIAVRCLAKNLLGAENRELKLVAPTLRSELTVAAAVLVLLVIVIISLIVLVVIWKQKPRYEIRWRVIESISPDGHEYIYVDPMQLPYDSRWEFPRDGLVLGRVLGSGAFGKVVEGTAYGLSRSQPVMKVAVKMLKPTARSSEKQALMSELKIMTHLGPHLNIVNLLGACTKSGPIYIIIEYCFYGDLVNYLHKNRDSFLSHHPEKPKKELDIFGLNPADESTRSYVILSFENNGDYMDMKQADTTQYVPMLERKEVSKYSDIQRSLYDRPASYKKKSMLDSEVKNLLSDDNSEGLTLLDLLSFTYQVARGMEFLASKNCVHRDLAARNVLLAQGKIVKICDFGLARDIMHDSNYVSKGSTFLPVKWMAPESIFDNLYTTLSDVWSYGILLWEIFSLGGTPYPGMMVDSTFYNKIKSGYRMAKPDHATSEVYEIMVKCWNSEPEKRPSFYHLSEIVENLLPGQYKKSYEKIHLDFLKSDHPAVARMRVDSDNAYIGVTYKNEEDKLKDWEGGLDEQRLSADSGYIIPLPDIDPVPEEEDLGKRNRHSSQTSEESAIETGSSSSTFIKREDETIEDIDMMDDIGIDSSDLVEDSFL
Chain of Mitogen-activated protein kinase kinase kinase 9 (Homo sapiens) (P80192 whole entry, looked up): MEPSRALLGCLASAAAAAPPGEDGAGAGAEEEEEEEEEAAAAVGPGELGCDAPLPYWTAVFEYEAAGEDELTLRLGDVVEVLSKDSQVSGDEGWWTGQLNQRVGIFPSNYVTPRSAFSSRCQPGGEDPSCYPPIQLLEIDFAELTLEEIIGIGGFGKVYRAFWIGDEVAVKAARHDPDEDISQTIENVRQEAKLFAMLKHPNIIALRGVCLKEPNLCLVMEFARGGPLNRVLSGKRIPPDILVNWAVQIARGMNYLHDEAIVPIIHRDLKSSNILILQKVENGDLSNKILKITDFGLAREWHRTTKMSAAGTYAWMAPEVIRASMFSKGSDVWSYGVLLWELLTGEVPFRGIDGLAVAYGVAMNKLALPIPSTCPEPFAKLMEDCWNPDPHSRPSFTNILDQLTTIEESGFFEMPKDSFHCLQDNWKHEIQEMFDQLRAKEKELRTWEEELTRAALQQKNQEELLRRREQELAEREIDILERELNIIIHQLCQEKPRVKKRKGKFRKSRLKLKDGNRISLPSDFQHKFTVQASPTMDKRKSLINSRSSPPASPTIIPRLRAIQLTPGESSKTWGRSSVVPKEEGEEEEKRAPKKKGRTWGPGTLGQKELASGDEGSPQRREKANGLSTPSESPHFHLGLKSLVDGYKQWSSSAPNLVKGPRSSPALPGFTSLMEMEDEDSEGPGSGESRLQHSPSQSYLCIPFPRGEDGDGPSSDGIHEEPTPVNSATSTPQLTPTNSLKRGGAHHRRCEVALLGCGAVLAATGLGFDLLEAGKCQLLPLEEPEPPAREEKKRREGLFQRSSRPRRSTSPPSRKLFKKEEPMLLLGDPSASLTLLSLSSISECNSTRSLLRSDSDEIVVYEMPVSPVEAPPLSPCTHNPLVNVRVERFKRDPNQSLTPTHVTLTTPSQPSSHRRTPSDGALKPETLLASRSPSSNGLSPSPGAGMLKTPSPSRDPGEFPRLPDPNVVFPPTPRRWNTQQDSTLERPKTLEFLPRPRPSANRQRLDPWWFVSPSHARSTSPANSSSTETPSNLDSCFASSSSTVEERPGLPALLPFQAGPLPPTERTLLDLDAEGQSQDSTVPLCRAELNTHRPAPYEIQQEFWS
Chain of C-X-C chemokine receptor type 4 (Homo sapiens) (P61073 whole entry): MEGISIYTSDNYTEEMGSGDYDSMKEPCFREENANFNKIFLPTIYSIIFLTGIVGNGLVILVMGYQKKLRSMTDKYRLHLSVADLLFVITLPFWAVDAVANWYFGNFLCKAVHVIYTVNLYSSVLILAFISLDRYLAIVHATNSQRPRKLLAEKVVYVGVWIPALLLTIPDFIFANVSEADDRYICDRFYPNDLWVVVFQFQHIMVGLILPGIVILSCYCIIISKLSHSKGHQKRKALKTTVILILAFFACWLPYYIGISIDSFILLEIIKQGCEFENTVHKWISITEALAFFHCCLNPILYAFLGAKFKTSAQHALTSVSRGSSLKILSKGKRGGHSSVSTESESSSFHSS
Chain of Prostaglandin E2 receptor EP1 subtype (Homo sapiens) (P34995 whole entry): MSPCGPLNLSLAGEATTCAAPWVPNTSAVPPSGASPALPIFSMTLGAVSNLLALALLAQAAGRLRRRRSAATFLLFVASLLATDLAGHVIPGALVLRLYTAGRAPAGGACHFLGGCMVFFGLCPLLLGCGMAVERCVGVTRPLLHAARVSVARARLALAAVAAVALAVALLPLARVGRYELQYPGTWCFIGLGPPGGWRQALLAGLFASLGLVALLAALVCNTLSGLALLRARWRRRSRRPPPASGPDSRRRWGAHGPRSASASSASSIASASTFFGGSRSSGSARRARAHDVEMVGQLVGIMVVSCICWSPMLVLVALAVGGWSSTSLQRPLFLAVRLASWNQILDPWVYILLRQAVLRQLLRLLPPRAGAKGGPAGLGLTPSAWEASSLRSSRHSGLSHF

With `C[C@@H]1CN(c2cc(-c3n[nH]c4ccc(OC5(C)CC5)cc34)ncn2)C[C@H](C)O1` [MLi-2], the inhibition (as a rule, the drop in the measured response relative to a control, in per cent) in experiment [1] is 14%; in experiment [2], 9.34%; in experiment [3], -3.77%; in experiment [4] it was 8.75%; in experiment [5], 14.9%; in experiment [6], 5.55%. Further, the inhibition was 2.54% in [7]; 9.16% in experiment [8]; 7.67% in experiment [9]; -4.32% in experiment [10]; 20.3% in [11]; 27.3% in experiment [12]. The inhibition in experiment [13] is 4.25%; in [14], 14.2%; in experiment [15] it was 0.799%; in [16], 0.395%; in [17], 23.5%; in experiment [18] it was 11.9%. For the same compound, the inhibition in [19] is 3%; in [20], 16%; in experiment [21], -9%.

Consider `C[C@@H]1CN(c2cc(-c3nn(C)c4ccc(OC5(C)CC5)cc34)ncn2)C[C@H](C)O1` [MLi-2-NC], for which, in experiment [22], the residual activity (in general, the signal under treatment as a percentage of the control signal) is 36%.

These data come from ChEMBL document CHEMBL4507291 (2021).
